Laboratory results as given in ChEMBL document CHEMBL5360622, “Leucettinibs, a Class of DYRK/CLK Kinase Inhibitors Inspired by the Marine Sponge Natural Product Leucettamine B” (J Med Chem, 2023).

Legend:
[1] = target: Casein kinase I isoform epsilon (Homo sapiens, UniProt P49674)
[2] = target: Dual specificity protein kinase CLK3 (Homo sapiens, UniProt P49761); format: cell-based, Sf9
[3] = target: Dual specificity protein kinase CLK2 (Homo sapiens, UniProt P49760)
[4] = target: Glycogen synthase kinase-3 beta (Homo sapiens, UniProt P49841); format: cell-based, Sf9
Chain of Glycogen synthase kinase-3 beta (P49841 whole entry): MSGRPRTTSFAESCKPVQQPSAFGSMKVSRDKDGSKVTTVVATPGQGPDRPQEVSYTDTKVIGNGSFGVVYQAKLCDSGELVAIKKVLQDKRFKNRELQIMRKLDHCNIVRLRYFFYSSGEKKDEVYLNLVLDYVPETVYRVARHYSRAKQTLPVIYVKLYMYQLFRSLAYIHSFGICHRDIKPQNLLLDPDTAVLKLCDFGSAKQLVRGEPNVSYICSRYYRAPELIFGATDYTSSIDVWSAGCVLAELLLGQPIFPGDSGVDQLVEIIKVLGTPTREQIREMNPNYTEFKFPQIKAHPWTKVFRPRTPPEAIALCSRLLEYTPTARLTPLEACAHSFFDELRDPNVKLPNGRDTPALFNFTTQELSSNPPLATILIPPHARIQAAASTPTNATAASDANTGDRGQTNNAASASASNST

[5] = target: T1, Dual specificity tyrosine-phosphorylation-regulated kinase 4 (Homo sapiens, UniProt Q9NR20)
T1 sequence (Q9NR20 whole entry): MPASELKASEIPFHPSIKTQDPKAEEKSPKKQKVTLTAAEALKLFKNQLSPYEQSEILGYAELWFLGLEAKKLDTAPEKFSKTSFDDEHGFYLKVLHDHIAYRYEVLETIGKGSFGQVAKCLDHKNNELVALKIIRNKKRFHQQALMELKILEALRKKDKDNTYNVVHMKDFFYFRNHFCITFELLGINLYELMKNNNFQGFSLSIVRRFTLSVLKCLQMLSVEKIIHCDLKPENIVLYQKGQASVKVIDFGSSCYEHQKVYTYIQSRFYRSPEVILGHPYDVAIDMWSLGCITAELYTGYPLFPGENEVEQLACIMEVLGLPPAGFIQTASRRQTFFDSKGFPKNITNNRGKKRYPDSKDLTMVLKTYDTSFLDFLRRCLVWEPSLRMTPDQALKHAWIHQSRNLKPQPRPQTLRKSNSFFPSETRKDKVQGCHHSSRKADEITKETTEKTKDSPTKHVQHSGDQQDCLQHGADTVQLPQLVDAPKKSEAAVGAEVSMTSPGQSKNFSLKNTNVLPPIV

[6] = target: Cyclin-dependent kinase 5/CDK5 activator 1 (Homo sapiens, UniProt Q00535); format: cell-based, Sf9
Chain of Cyclin-dependent kinase 5/CDK5 activator 1 (Q00535 whole entry): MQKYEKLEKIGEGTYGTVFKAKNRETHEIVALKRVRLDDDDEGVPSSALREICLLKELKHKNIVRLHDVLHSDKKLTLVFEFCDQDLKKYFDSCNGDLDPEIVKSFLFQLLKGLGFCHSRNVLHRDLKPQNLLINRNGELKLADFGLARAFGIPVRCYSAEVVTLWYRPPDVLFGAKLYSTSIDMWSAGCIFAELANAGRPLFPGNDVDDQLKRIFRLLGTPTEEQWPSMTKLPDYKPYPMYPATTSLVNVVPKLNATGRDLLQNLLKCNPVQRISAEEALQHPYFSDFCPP
Chain of Cyclin-dependent kinase 5/CDK5 activator 1 (Q15078 whole entry, further chain): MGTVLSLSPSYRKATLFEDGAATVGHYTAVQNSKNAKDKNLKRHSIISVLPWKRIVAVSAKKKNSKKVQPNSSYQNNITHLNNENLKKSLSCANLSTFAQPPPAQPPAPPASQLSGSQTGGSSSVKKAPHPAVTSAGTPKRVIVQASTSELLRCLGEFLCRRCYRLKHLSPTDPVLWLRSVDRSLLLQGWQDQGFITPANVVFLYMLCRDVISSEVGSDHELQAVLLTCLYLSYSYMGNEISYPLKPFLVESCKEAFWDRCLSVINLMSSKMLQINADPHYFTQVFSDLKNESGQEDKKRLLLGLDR

[7] = target: T2, Dual specificity tyrosine-phosphorylation-regulated kinase 2 (Homo sapiens, UniProt Q92630)
T2 sequence (Q92630 whole entry): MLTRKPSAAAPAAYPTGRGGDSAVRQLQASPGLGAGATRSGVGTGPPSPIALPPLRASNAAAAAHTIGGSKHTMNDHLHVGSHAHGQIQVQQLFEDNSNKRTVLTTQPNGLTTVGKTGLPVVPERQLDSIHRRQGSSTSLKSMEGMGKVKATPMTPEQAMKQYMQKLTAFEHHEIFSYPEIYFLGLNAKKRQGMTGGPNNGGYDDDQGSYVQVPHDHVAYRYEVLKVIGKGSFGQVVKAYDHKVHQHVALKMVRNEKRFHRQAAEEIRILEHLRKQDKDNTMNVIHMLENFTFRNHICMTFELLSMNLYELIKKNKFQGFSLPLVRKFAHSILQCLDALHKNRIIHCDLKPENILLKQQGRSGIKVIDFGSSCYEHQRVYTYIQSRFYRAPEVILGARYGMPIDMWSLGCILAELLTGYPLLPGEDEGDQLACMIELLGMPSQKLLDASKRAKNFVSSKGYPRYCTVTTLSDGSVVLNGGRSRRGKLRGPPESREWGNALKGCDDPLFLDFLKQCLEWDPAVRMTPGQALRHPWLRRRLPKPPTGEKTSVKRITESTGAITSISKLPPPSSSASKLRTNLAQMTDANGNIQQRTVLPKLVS

Chain of Casein kinase I isoform epsilon (P49674 whole entry, canonical isoform): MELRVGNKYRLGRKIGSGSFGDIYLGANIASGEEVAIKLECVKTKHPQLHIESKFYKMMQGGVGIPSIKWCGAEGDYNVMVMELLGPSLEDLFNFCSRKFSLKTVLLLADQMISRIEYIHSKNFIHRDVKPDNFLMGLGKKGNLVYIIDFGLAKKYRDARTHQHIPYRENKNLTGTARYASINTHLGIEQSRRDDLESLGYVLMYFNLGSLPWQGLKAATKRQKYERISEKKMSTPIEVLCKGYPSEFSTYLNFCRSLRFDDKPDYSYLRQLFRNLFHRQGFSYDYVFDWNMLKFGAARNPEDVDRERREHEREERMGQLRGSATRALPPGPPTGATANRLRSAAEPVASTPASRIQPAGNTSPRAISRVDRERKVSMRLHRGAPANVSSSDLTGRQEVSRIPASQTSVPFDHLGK
Chain of Dual specificity protein kinase CLK2 (P49760 whole entry): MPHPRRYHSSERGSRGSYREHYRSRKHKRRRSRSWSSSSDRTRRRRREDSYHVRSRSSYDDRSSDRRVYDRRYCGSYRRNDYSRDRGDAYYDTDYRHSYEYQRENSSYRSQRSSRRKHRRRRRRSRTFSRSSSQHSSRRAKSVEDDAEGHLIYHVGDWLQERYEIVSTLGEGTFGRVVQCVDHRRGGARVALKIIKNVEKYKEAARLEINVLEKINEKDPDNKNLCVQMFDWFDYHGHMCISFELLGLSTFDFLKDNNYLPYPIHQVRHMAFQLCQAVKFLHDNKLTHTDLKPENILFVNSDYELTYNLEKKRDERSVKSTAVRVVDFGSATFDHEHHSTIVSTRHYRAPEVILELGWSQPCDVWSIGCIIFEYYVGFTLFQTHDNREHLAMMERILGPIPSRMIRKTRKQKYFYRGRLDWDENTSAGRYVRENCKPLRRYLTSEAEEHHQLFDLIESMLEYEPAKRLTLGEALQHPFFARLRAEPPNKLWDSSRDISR
Chain of Dual specificity protein kinase CLK3 (P49761 whole entry): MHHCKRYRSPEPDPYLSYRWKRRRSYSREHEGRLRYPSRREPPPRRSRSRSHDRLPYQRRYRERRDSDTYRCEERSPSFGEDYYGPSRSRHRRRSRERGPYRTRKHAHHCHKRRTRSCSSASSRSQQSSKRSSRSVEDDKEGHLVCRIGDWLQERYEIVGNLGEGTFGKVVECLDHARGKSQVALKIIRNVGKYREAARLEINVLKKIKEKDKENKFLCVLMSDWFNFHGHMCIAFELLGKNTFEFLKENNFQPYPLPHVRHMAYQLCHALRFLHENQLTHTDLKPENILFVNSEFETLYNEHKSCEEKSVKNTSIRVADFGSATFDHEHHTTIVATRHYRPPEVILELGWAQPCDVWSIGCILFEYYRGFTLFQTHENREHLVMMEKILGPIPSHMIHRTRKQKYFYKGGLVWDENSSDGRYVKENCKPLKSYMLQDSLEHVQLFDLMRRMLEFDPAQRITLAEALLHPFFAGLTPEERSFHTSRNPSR

Compound | IC50 [1] | IC50 [2] | IC50 [3] | IC50 [4] | IC50 [5] | IC50 [6] | IC50 [7]
O=C1NC(Nc2cccnc2)=N/C1=C\c1ccc2ncsc2c1 | > 10000 nM | 201 nM | 84 nM | > 10000 nM | 1330 nM | > 10000 nM | 
COc1nc(C)ccc1NC1=N/C(=C\c2ccc3ncsc3c2)C(=O)N1 | > 10000 nM | > 10000 nM |  | 8970 nM |  | > 10000 nM | 1870 nM
O=C1NC(N[C@H]2CCOC2)=N/C1=C\c1ccc2ncsc2c1 | > 10000 nM | 405 nM | 398 nM | 6570 nM | 1040 nM | > 10000 nM | 
O=C1NC(NC2CCCCC(F)(F)C2)=N/C1=C\c1ccc2ncsc2c1 (racemic) | 420 nM |  |  | 1360 nM | 174 nM | 602 nM | 
CC[C@@H](CO)NC1=N/C(=C\c2ccc3ncsc3c2)C(=O)N1 | > 10000 nM | 1600 nM | 474 nM | > 10000 nM | 3160 nM | > 10000 nM | 1730 nM
CN1CCN(c2ccc(NC3=N/C(=C\c4ccc5ncsc5c4)C(=O)N3)cc2)CC1 | 3430 nM | 1060 nM | 28 nM | 999 nM | 244 nM | > 10000 nM | 
NC[C@H](NC1=N/C(=C\c2ccc3ncsc3c2)C(=O)N1)c1ccccc1 |  |  |  | 1110 nM |  | 2340 nM | 
O=C1NC(N[C@H]2CC[C@H](O)CC2)=N/C1=C\c1ccc2ncsc2c1 | > 10000 nM | 392 nM | 98 nM | 9620 nM | 1770 nM | 4950 nM | 625 nM
Cn1ccc(NC2=N/C(=C\c3ccc4ncsc4c3)C(=O)N2)n1 | > 10000 nM | 201 nM | 111 nM | 2580 nM | 4160 nM | > 10000 nM | 1130 nM
O=C1NC(NCc2cccnc2)=N/C1=C\c1ccc2ncsc2c1 | > 10000 nM | 716 nM | 53 nM | 2840 nM | 1380 nM | > 10000 nM | 2010 nM
O=C1NC(N[C@@H](CO)CC2CCCC2)=N/C1=C\c1ccc2ncsc2c1 | > 10000 nM | 1460 nM | 40 nM | 2870 nM | 1720 nM | > 10000 nM | 4010 nM
COC12CC3CC(CC(NC4=N/C(=C\c5ccc6ncsc6c5)C(=O)N4)(C3)C1)C2 | 1760 nM | 284 nM |  | 455 nM | 284 nM | 304 nM | 
CC(=O)NC12CC3CC(C1)CC(NC1=N/C(=C\c4ccc5ncsc5c4)C(=O)N1)(C3)C2 | 1200 nM | 610 nM |  | 663 nM | 263 nM | 610 nM | 
CN(C)C12CC3CC(CC(NC4=N/C(=C\c5ccc6ncsc6c5)C(=O)N4)(C3)C1)C2 | 1480 nM | 1800 nM |  | 1330 nM | 411 nM | 5010 nM | 
O=C1NC(N[C@@H]2CCC[C@H]2O)=N/C1=C\c1ccc2ncsc2c1 (racemic) | > 10000 nM | 224 nM |  | > 10000 nM | 553 nM | > 10000 nM | 472 nM
O=C1NC(N[C@@H](CO)CC2CC2)=N/C1=C\c1ccc2ncsc2c1 | > 10000 nM | 686 nM | 42 nM | 4390 nM | 731 nM | > 10000 nM | 8210 nM
NC[C@@H](NC1=N/C(=C\c2ccc3ncsc3c2)C(=O)N1)c1ccccc1 |  |  |  | 102 nM |  | 2520 nM | 

Compound | IC50 [1] | IC50 [2] | IC50 [3] | IC50 [4] | IC50 [5] | IC50 [6] | IC50 [7]
O=C1NC(NCC23CC4CC(CC(C4)C2)C3)=N/C1=C\c1ccc2ncsc2c1 |  | 1480 nM | 37 nM | > 10000 nM | 3700 nM | > 10000 nM | > 10000 nM
COC[C@@H](NC1=N/C(=C\c2ccc3ncsc3c2)C(=O)N1)c1ccccc1 | > 10000 nM | 450 nM | 616 nM | 5600 nM | 3790 nM | > 10000 nM | 260 nM
CNCC(NC1=N/C(=C\c2ccc3ncsc3c2)C(=O)N1)c1ccccc1 (racemic) | 6350 nM |  | 30 nM | 227 nM | 274 nM | 2010 nM | 
O=C1NC(NC23CC4CC(CC(NC(=O)C5CC5)(C4)C2)C3)=N/C1=C\c1ccc2ncsc2c1 | 2270 nM | 658 nM |  | 366 nM | 270 nM | 1450 nM | 
O=C1NC(NC2CCC(F)(F)CC2)=N/C1=C\c1ccc2ncsc2c1 | > 10000 nM | 467 nM |  | > 10000 nM | 1970 nM | > 10000 nM | 455 nM
O=C1NC(NC2C3CC4CC(C3)CC2C4)=N/C1=C\c1ccc2ncsc2c1 (stereo not drawn) | > 10000 nM | 1210 nM | 19 nM | 4760 nM | 127 nM | > 10000 nM | 573 nM
O=C1NC(NC23CC4CC(CC2C4)C3)=N/C1=C\c1ccc2ncsc2c1 | 2430 nM | 114 nM |  | 855 nM |  | 3210 nM | 
O=C1NC(Nc2ccc(F)cc2)=N/C1=C\c1ccc2ncsc2c1 | > 10000 nM | 1820 nM | 407 nM | > 10000 nM |  | > 10000 nM | 743 nM
CS(=O)(=O)NC12CC3CC(CC(NC4=N/C(=C\c5ccc6ncsc6c5)C(=O)N4)(C3)C1)C2 | 5810 nM | 1020 nM |  | 511 nM | 233 nM | 1540 nM | 
COC[C@H](NC1=N/C(=C\c2ccc3ncsc3c2)C(=O)N1)c1ccccc1 | > 10000 nM | 127 nM | 15 nM | 5170 nM | 335 nM | > 10000 nM | 159 nM
O=C1NC(N[C@@H]2CCC[C@@H]2O)=N/C1=C\c1ccc2ncsc2c1 (racemic) | > 10000 nM | 537 nM |  | > 10000 nM | 448 nM | > 10000 nM | 1210 nM
CN1CCN(c2ncc(NC3=N/C(=C\c4ccc5ncsc5c4)C(=O)N3)cn2)CC1 | > 10000 nM | 1920 nM | 143 nM | 1190 nM | 294 nM | > 10000 nM | 175 nM
NCC(NC1=N/C(=C\c2ccc3ncsc3c2)C(=O)N1)c1ccccc1 (stereo not drawn) |  |  |  | 616 nM |  | 943 nM | 
O=C1NC(N[C@@H]2CCOC2)=N/C1=C\c1ccc2ncsc2c1 | > 10000 nM | 747 nM | 404 nM | > 10000 nM | 2780 nM | > 10000 nM | 
O=C1NC(NC23CC4CC(CC(O)(C4)C2)C3)=N/C1=C\c1ccc2ncsc2c1 | 1100 nM | 215 nM |  | 317 nM |  | 332 nM | 
CC[C@H](CO)NC1=N/C(=C\c2ccc3ncsc3c2)C(=O)N1 | > 10000 nM | 1150 nM | 216 nM | > 10000 nM | 1600 nM | > 10000 nM | 1550 nM
O=C1NC(NC23CC4CC(CC(F)(C4)C2)C3)=N/C1=C\c1ccc2ncsc2c1 | 612 nM | 194 nM |  | 169 nM |  | 146 nM | 
